Assays:
A1 (h) = A1 (h) (Homo sapiens, UniProt P30542); experiment: CEREP binding assay; conditions: agonist radioligand, read-out: % Inhibition of Control Specific Binding
MCH1 (h) = biological target: T1, MCH1 (h) (Homo sapiens, UniProt Q99705); experiment: CEREP binding assay; conditions: agonist radioligand, read-out: % Inhibition of Control Specific Binding
T1 construct: purchased Millipore (KinaseProfiler) kinase panel

motilin (h) = motilin (h) (Homo sapiens, UniProt O43193); experiment: CEREP binding assay; conditions: agonist radioligand, read-out: % Inhibition of Control Specific Binding
GR (h) = biological target: T2, GR (h) (Homo sapiens, UniProt P04150); experiment: CEREP binding assay; conditions: agonist radioligand, read-out: % Inhibition of Control Specific Binding
T2 construct: CEREP

ERalpha (h) = ERalpha (h) (Homo sapiens, UniProt P03372); experiment: CEREP binding assay; conditions: agonist fluoligand, read-out: % Inhibition of Control Specific Binding
Chain of ERalpha (h) (P03372 whole entry): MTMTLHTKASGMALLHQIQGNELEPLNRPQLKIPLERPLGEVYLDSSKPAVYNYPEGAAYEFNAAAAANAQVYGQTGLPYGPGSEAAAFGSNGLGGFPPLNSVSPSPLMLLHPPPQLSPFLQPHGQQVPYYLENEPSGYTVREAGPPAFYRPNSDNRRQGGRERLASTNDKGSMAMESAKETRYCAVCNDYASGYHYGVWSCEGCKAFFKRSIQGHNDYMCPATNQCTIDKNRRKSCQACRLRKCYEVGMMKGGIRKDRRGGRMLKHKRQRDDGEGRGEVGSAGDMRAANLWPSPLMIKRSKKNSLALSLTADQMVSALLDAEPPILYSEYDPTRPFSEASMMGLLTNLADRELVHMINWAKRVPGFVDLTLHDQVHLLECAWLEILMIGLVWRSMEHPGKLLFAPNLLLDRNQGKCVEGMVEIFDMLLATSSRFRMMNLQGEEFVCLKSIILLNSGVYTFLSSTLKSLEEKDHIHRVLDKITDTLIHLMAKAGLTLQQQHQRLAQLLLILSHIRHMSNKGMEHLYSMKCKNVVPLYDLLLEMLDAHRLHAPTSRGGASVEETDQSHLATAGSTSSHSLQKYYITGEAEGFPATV

V2 (h) = biological target: T3, V2 (h) (Homo sapiens, UniProt P30518); experiment: CEREP binding assay; conditions: agonist radioligand, read-out: % Inhibition of Control Specific Binding
T3 construct: CEREP

EPHA1 = biological target: T4, EPHA1 (Homo sapiens, UniProt P21709); experiment: Kinase panel (Millipore); assay type: biochemical; conditions: 1 µM, ATP at Km
T4 construct: purchased Millipore (KinaseProfiler) kinase panel

ARK5 = biological target: T5, ARK5 (Homo sapiens, UniProt O60285); experiment: Kinase panel (Millipore); assay type: biochemical; conditions: 1 µM, ATP at Km
T5 construct: purchased Millipore (KinaseProfiler) kinase panel

LKB1 = biological target: T6, LKB1 (Homo sapiens, UniProt Q15831); experiment: Kinase panel (Millipore); assay type: biochemical; conditions: 1 µM, ATP at Km
T6 construct: purchased Millipore (KinaseProfiler) kinase panel

EPHB2 = biological target: T7, EPHB2 (Homo sapiens, UniProt P29323); experiment: Kinase panel (Millipore); assay type: biochemical; conditions: 1 µM, ATP at Km
T7 construct: purchased Millipore (KinaseProfiler) kinase panel
T7 sequence (P29323 19-1055): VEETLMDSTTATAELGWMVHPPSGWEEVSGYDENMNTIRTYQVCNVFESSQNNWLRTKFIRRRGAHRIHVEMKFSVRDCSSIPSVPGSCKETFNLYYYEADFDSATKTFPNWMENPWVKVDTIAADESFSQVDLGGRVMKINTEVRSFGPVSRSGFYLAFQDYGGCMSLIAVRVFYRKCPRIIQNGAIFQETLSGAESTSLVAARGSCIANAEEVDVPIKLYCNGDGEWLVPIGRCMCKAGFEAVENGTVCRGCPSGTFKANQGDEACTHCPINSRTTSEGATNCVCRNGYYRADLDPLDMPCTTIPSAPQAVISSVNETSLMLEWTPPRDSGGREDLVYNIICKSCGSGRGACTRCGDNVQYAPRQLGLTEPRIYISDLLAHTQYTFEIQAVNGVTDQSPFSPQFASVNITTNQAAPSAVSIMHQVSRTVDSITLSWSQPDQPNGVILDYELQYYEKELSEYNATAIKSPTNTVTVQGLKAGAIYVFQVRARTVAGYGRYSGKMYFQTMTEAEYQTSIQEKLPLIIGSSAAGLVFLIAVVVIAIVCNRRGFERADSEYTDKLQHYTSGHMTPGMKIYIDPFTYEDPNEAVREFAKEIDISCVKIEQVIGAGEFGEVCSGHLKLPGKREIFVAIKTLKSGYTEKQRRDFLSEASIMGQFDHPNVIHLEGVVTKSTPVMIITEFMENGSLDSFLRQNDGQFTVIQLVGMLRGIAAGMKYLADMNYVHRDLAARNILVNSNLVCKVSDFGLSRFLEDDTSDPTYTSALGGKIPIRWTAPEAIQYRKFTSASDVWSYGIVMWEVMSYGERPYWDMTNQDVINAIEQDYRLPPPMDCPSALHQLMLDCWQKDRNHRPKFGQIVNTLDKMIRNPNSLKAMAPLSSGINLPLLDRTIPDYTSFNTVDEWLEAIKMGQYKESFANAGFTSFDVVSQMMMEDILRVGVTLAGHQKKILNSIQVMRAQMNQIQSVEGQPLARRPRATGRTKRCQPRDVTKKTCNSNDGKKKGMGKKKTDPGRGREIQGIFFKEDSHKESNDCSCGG

LYN = LYN (Homo sapiens, UniProt P07948); experiment: Kinase panel (Millipore); assay type: biochemical; conditions: 1 µM, ATP at Km
Chain of LYN (P07948 whole entry): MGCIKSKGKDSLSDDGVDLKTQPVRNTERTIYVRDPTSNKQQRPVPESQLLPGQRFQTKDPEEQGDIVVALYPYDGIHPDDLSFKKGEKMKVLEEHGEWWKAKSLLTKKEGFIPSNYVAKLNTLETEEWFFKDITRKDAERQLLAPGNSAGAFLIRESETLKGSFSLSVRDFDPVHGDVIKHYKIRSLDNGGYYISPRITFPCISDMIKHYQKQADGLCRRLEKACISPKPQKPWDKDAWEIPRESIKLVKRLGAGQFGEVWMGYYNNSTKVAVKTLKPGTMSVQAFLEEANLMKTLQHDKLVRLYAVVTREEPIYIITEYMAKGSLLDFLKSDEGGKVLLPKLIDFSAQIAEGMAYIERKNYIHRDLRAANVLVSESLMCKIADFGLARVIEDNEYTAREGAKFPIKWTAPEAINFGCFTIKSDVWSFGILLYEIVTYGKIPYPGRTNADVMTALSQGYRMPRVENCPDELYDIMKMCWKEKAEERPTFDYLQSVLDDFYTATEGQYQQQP

MAPK2 = MAPK2 (Homo sapiens, UniProt P28482); experiment: Kinase panel (Millipore); assay type: biochemical; conditions: 1 µM, ATP at Km
MRCKBETA = biological target: T8, MRCKBETA (Homo sapiens, UniProt Q9Y5S2); experiment: Kinase panel (Millipore); assay type: biochemical; conditions: 1 µM, ATP at Km
T8 construct: purchased Millipore (KinaseProfiler) kinase panel

HCK = HCK (Homo sapiens, UniProt P08631); experiment: Kinase panel (Millipore); assay type: biochemical; conditions: 1 µM, ATP at Km
NLK = biological target: T9, NLK (Homo sapiens, UniProt Q9UBE8); experiment: Kinase panel (Millipore); assay type: biochemical; conditions: 1 µM, ATP at Km
T9 construct: purchased Millipore (KinaseProfiler) kinase panel
T9 sequence (Q9UBE8 whole entry): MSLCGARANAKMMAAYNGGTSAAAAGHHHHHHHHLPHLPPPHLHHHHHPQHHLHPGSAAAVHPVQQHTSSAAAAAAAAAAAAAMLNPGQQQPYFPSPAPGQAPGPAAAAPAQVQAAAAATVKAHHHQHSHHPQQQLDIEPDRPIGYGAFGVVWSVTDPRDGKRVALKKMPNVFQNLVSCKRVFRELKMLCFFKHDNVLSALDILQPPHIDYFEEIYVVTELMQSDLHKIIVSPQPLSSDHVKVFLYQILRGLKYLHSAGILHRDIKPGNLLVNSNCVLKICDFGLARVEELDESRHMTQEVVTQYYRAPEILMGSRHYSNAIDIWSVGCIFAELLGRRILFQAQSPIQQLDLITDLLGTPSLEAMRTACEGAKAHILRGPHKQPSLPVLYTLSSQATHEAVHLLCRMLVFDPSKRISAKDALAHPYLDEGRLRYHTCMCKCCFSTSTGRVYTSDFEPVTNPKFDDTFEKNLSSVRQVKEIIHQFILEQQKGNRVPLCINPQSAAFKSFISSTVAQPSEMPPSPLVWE

DYRK2 = DYRK2 (Homo sapiens, UniProt Q92630); experiment: Kinase panel (Millipore); assay type: biochemical; conditions: 1 µM, ATP at Km
PAK4 = biological target: T10, PAK4 (Homo sapiens, UniProt O96013); experiment: Kinase panel (Millipore); assay type: biochemical; conditions: 1 µM, ATP at Km
T10 construct: purchased Millipore (KinaseProfiler) kinase panel

RSK3 = RSK3 (Homo sapiens, UniProt Q15349); experiment: Kinase panel (Millipore); assay type: biochemical; conditions: 1 µM, ATP at Km
PI3K BETA = PI3K BETA (Homo sapiens, UniProt P42338); experiment: Kinase panel (Millipore); assay type: biochemical; conditions: 1 µM, ATP at Km
CAMKIDELTA = CAMKIDELTA (Homo sapiens, UniProt Q8IU85); experiment: Kinase panel (Millipore); assay type: biochemical; conditions: 1 µM, ATP at Km
PI3K DELTA = PI3K DELTA (Homo sapiens, UniProt O00329); experiment: Kinase panel (Millipore); assay type: biochemical; conditions: 1 µM, ATP at Km
SYK = SYK (Homo sapiens, UniProt P43405); experiment: Kinase panel (Millipore); assay type: biochemical; conditions: 1 µM, ATP at Km
PKCDELTA = PKCDELTA (Homo sapiens, UniProt Q05655); experiment: Kinase panel (Millipore); assay type: biochemical; conditions: 1 µM, ATP at Km
TSSK1 = biological target: T11, TSSK1 (Homo sapiens, UniProt Q9BXA7); experiment: Kinase panel (Millipore); assay type: biochemical; conditions: 1 µM, ATP at Km
T11 construct: purchased Millipore (KinaseProfiler) kinase panel

WNK3 = biological target: T12, WNK3 (Homo sapiens, UniProt Q9BYP7); experiment: Kinase panel (Millipore); assay type: biochemical; conditions: 1 µM, ATP at Km
T12 construct: purchased Millipore (KinaseProfiler) kinase panel

ZAP-70 = biological target: T13, ZAP-70 (Homo sapiens, UniProt P43403); experiment: Kinase panel (Millipore); assay type: biochemical; conditions: 1 µM, ATP at Km
T13 construct: purchased Millipore (KinaseProfiler) kinase panel

PYK2 = biological target: T14, PYK2 (Homo sapiens, UniProt Q14289); experiment: Kinase panel (Millipore); assay type: biochemical; conditions: 1 µM, ATP at Km
T14 construct: purchased Millipore (KinaseProfiler) kinase panel

ROS = biological target: T15, ROS (Homo sapiens, UniProt P08922); experiment: Kinase panel (Millipore); assay type: biochemical; conditions: 1 µM, ATP at Km
T15 construct: purchased Millipore (KinaseProfiler) kinase panel

MELK = biological target: T16, MELK (Homo sapiens, UniProt Q14680); experiment: Kinase panel (Millipore); assay type: biochemical; conditions: 1 µM, ATP at Km
T16 construct: purchased Millipore (KinaseProfiler) kinase panel
T16 sequence (Q14680 whole entry): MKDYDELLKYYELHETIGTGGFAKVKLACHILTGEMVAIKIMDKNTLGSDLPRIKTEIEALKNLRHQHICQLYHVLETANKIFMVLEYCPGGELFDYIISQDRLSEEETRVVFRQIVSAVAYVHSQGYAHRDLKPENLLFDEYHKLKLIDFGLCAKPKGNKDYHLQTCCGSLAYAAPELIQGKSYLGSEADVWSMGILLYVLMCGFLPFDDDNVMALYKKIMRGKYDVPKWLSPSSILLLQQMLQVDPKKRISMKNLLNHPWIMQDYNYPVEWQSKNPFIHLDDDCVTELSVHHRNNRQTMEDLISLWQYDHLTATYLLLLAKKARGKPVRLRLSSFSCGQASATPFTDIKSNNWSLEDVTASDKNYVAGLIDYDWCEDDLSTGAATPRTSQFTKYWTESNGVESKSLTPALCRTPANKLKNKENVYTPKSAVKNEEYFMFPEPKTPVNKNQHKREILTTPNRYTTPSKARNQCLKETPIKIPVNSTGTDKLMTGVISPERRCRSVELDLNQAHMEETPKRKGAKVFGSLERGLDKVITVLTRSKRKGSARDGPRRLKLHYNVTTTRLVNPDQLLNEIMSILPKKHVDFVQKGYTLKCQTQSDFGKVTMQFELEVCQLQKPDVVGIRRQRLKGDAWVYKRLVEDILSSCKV

CDK3/CYCLINE = CDK3/CYCLINE (Homo sapiens, UniProt Q00526); conditions: 1 µM, ATP at Km
FLT3(D835Y) = FLT3(D835Y) (Homo sapiens, UniProt P36888, D835Y); conditions: 1 µM, ATP at Km
CDK5/P35 = CDK5/P35 (Homo sapiens, UniProt Q00535); conditions: 1 µM, ATP at Km
CDK6/CYCLIND3 = CDK6/CYCLIND3 (Homo sapiens, UniProt Q00534); conditions: 1 µM, ATP at Km
Chain of CDK6/CYCLIND3 (Q00534 whole entry): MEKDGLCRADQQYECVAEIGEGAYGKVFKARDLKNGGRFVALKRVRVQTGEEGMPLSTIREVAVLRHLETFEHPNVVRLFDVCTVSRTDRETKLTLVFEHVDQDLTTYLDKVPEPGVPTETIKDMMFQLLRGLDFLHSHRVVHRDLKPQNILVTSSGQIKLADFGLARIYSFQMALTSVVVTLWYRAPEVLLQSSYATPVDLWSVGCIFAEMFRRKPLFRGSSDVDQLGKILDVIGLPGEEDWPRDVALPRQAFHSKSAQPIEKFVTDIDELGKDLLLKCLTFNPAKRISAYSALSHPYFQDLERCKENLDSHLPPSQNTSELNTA
Chain of CDK6/CYCLIND3 (P30281 whole entry partner): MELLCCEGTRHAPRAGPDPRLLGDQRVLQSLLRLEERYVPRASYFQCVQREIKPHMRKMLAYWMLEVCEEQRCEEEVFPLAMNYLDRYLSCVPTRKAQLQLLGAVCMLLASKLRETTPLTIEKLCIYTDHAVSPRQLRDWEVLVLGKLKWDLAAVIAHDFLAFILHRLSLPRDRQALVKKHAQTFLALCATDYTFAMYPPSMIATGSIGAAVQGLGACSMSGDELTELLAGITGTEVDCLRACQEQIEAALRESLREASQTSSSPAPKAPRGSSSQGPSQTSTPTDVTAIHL

EGFR(L861Q) = EGFR(L861Q) (Homo sapiens, UniProt P00533, L861Q); conditions: 1 µM, ATP at Km
EGFR(T790M,L858R) = EGFR(T790M,L858R) (Homo sapiens, UniProt P00533, L858R/T790M); conditions: 1 µM, ATP at Km
ABL (M351T) = ABL (M351T) (Homo sapiens, UniProt P00519, M351T); conditions: 1 µM, ATP at Km
in vitro = conditions: human, Caco-2, pH 7.4
glucagon (h) = glucagon (h) (Homo sapiens, UniProt P47871); experiment: biochemical; conditions: read-out: % Inhibition of Control Specific Binding
M4 (h) = M4 (h) (Homo sapiens, UniProt P08173); experiment: biochemical; conditions: read-out: % Inhibition of Control Specific Binding
[1] = biological target: N neuronal alpha 4beta 2 (h) (Homo sapiens, UniProt P17787+P43681); experiment: biochemical; conditions: read-out: % Inhibition of Control Specific Binding
Chain of N neuronal alpha 4beta 2 (h) (P43681 29-627 limits assumed): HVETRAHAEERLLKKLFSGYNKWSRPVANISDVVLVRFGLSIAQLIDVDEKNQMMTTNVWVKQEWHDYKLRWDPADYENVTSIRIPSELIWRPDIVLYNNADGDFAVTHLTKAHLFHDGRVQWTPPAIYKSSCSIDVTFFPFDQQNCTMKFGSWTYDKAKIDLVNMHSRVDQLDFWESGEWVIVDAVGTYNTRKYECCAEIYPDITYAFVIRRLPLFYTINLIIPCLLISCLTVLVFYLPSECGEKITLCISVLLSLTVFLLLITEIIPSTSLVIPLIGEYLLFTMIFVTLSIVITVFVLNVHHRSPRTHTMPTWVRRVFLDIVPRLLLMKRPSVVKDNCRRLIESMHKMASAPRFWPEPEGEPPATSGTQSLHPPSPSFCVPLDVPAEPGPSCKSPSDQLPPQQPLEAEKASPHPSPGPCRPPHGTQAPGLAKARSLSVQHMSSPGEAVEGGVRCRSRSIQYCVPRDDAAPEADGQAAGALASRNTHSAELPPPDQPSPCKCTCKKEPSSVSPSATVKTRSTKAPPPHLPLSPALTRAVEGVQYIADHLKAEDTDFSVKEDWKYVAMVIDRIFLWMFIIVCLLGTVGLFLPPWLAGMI
Chain of N neuronal alpha 4beta 2 (h) (P17787 26-502): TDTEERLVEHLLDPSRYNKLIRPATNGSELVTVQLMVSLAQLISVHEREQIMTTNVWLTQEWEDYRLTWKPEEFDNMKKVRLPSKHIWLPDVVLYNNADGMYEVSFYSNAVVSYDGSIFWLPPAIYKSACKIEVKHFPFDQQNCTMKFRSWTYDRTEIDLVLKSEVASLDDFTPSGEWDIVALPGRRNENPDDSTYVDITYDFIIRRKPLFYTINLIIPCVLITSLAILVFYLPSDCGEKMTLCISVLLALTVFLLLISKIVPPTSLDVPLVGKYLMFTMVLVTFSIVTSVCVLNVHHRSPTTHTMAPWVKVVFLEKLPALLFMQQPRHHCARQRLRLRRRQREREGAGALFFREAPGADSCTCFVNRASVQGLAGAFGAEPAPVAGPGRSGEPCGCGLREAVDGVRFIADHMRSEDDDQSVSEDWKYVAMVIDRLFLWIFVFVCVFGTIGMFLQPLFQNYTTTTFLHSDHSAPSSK

Cn1ncc2cc(-c3cnc(N)c(Cl)c3N3CCC4(CCNC4=O)CC3)ccc21 [Compound 109, 8-(2-Amino-3-chloro-5-(1-methyl-1H-indazol-5-yl)pyridin-4-yl)-2,8-diazaspiro[4.5]decan-1-one]
inhibition at 10 µM (A1 (h)): -4% | inhibition at 10 µM (MCH1 (h)): 34% | inhibition at 10 µM (motilin (h)): 12% | inhibition at 10 µM (GR (h)): -1% | inhibition at 10 µM (ERalpha (h)): 0% | inhibition at 10 µM (V2 (h)): 2% | % effect (EPHA1): 4% | % effect (ARK5): 10% | % effect (LKB1): 5% | % effect (EPHB2): -3% | % effect (LYN): -3% | % effect (MAPK2): -6% | % effect (MRCKBETA): -35% | % effect (HCK): -4% | % effect (NLK): -5% | % effect (DYRK2): -9% | % effect (PAK4): -1% | % effect (RSK3): -15% | % effect (PI3K BETA): 2% | % effect (CAMKIDELTA): 8% | % effect (PI3K DELTA): 6% | % effect (SYK): 2% | % effect (PKCDELTA): 6% | % effect (TSSK1): -7% | % effect (WNK3): 6% | % effect (ZAP-70): 21% | % effect (PYK2): -2% | % effect (ROS): 8% | % effect (MELK): 3% | Cl (human): ∼0.36 L/h/kg | F (human): ∼70% | Vd (human): ∼1.4 L/kg | clearance prediction, allometry with correction by fu and BrW (human): 0.343 L/h/kg | clearance prediction, allometry with correction by fu and MLP (human): 0.511 L/h/kg | clearance prediction, iviv from hepatocytes (human): 0.215 L/h/kg | volume prediction, range of allometry methods (human): 1.3 to 1.5 L/kg | t1/2 (human prediction): ∼2.7 h | % effect (CDK3/CYCLINE): 6% | % effect (FLT3(D835Y)): 21% | % effect (CDK5/P35): 1% | % effect (CDK6/CYCLIND3): 5% | % effect (EGFR(L861Q)): 11% | % effect (EGFR(T790M,L858R)): 0% | % effect (ABL (M351T)): -11% | Papp A→B at 2 h, 1 μM (in vitro): 318 nm/s | inhibition at 10 µM (glucagon (h)): -7% | inhibition at 10 µM (M4 (h)): 22% | inhibition at 10 µM [1]: -6%
